The record followed here is patent US10385052B2, “Tricyclic compound and JAK inhibitor” (NISSAN CHEMICAL CORPORATION, priority 2014, dated 2019).

Test [1] concerns cytokine signaling via JAK. Put plainly: Signal assay in rat whole blood (STAT phosphorylation assay). It is filed as cell-based. The settings on record: T-cell; female Lewis rat whole blood, rat IL-6 100 ng/mL, phosphated STAT-1 in CD3 positive T cells. The method, then: 2. Signal Assay in Rat Whole Blood
The inhibitory activities of the compounds of the present invention obtained in Synthetic Examples 1 and 2 against cytokine signaling via JAK were measured by STAT phosphorylation assay using rat whole blood.
Female Lewis rats were purchased from CHARLES RIVER LABORATORIES JAPAN, INC.
Rat IL-6 was purchased from PeproTech.
Each compound was used at three consecutive concentrations of 1 μM, 0.1 μM and 0.01 μM, or 10 μM, 1 μM and 0.1 μM.
The concentration of rat IL-6 was 100 ng/mL.
The concentration of FITC-CD3 was 1 μg/mL.
The blood and a compound were put into each Costar assay block tube and incubated at 37° C. for 15 minutes, then incubated with FITC-CD3 at 37° C. for 15 minutes, incubated with rat IL-6 at 37° C. for 15 minutes and incubated with 10 times as much of BD Phosflow Lyse/Fix Buffer as the blood at 37° C. for 12 minutes. Centrifugal separation was carried out at 5,884 m/s^2 for 6 minutes with a centrifugal separator to precipitate the cells, and the supernatants were removed.
(§1) The cell pellets were washed with 1 mL of phosphate buffered saline (PBS), then incubated with 0.6 mL of BD Phosflow Perm Buffer III on ice for 30 minutes and centrifuged at 5,884 m/s^2 for 6 minutes by means of a centrifugal separator to precipitate the cells, and the supernatants were removed.
The cell pellets were washed with 0.3 mL of BD Pharmingen Stain Buffer and incubated with 0.1 mL of BD Pharmingen Stain Buffer and 10 μL of BD Phosflow STAT-1 at room temperature for 30 minutes. After addition of 0.1 mL of BD Pharmingen Stain Buffer, the cells were centrifuged at 5,884 m/s^2 for 6 minutes by means of a centrifugal separator to precipitate the cells, and the supernatants were removed.
(§2) The cell pellets were washed with 0.3 mL of BD Pharmingen Stain Buffer, and 0.12 mL of BD Pharmingen Stain Buffer was added. The cytokine signaling inhibition was measured with FACS Cantoll (manufactured by BD) by detecting FITC-labeled CD3 positive T cells and detecting the amount of phosphated STAT-1 protein in the cells as the PE fluorescence. From the plot of the logarithm of a compound concentration and inhibitory activity, the IC50 value was calculated.

The subject of test [2] is cytokine signaling via JAK. Nature of the test: Signal assay in human whole blood (STAT phosphorylation assay). The test is classed as cell-based. The settings on record: T-cell, human IL-6 100 ng/mL, phosphated STAT-1 in CD3 positive T cells. The method, then: 3. Signal Assay in Human Whole Blood
The inhibitory activities of the compounds of the present invention obtained in Synthetic Examples 3 to 7 against cytokine signaling via JAK were measured by STAT phosphorylation assay using human whole blood.
Human whole blood was collected from healthy humans.
Human IL-6 was purchased from R&D systems.
Each compound was used at six concentrations of 3 μM, 1.5 μM, 0.75 μM, 0.38 μM, 0.19 μM and 0.093 μM, at six concentrations of 2 μM, 1 μM, 0.5 μM, 0.25 μM, 0.13 μM and 0.063 μM, or at six concentrations of 10 μM, 5 μM, 2.5 μM, 1.25 μM, 0.63 μM and 0.31 μM.
The concentration of human IL-6 was 100 ng/mL.
Human blood and a compound were put into each Costar assay block tube and incubated at 37° C. for 30 minutes, then incubated with human IL-6 at 37° C. for 15 minutes and incubated with 10 times as much of BD Phosflow Lyse/Fix Buffer as the blood at 37° C. for 12 minutes. Centrifugal separation was carried out at 5,884 m/s^2 for 6 minutes with a centrifugal separator to precipitate the cells, and the supernatants were removed.
as §1
The cell pellets were washed with 0.3 mL of BD Pharmingen Stain Buffer and incubated with 0.1 mL of BD Pharmingen Stain Buffer, 10 μL of BD Phosflow STAT-1 and 5 μL of FITC-hCD3 at room temperature for 30 minutes. After addition of 0.1 mL of BD Pharmingen Stain Buffer, the cells were centrifuged at 5,884 m/s^2 for 6 minutes by means of a centrifugal separator to precipitate the cells, and the supernatants were removed.
as §2

The target in the next test is JAK3 (Homo sapiens (Human), UniProt P52333). Put plainly: JAK3 enzyme assay. It is filed as biochemical. The settings on record: enzyme 0.020 μg/mL, ATP 3 μM. The method, then: (§3) The JAK inhibitory activities of compounds of the present invention were measured.
JAK3, sequence (P52333 whole entry): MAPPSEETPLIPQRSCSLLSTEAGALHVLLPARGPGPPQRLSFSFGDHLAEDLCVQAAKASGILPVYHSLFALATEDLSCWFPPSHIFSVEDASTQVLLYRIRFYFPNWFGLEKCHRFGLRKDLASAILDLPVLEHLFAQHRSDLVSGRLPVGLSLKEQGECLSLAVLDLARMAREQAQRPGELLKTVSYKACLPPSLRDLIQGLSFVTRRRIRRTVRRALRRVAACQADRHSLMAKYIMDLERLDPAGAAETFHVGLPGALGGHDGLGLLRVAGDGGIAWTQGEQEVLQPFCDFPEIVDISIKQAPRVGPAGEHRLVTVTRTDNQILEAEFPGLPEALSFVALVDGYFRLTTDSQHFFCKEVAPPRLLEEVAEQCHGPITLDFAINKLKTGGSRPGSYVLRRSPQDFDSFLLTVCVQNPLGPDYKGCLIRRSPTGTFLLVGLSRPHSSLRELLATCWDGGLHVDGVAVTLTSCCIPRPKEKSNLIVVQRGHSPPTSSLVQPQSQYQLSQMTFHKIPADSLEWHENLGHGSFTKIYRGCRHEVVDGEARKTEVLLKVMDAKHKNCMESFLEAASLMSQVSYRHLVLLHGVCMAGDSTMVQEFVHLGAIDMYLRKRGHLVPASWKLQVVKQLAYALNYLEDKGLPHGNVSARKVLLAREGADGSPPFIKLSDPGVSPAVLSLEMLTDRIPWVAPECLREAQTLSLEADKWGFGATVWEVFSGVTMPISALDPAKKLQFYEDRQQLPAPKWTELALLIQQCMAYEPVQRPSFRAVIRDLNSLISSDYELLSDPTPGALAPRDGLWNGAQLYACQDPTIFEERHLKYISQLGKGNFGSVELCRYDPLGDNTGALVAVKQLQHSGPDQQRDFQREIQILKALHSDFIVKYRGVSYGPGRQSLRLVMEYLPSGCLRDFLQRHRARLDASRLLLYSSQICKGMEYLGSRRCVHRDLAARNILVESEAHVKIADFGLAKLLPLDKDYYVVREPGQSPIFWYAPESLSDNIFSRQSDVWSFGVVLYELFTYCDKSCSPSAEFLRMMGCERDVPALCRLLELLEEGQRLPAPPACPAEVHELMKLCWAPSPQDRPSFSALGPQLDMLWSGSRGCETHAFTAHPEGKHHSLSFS
(§4) The enzymes (JAK1, JAK2, JAK3 and Tyk2) were purchased from Carna Biosciences, Inc.
(§5) As the substrate for the enzymes (hereinafter referred to as the substrate), LANCE Ultra ULight-JAK-1 (Tyr1023) Peptide (manufactured by PerkinElmer Co., Ltd.) was used.
(§6) As the antibody for detecting phosphorylation of the substrate, LANCE Ultra Europium-anti-phospho tyrosine antibody (PT66) (manufactured by PerkinElmer Co., Ltd.) was used.
(§7) The compounds of the present invention, the enzymes (JAK1, JAK2, JAK3 and Tyk2), the substrate and ATP were used for the assays after diluted with the assay buffer.
(§8) The enzyme concentrations and the ATP concentrations in the respective enzyme (JAK1, JAK2, JAK3 and Tyk2) assays were as follows.
JAK3 enzyme assay; the enzyme concentration was 0.020 μg/mL, and the ATP concentration was 3 μM.
(§9) The concentration of the substrate for the enzymes was 25 nM.
(§10) Dilute solutions of compounds and enzymes were dispensed into wells of a 384-well black plate (manufactured by Greiner bio-one) and preincubated at room temperature for 5 minutes.
(§11) Then, a dilute solution of the substrate and then a dilute solution of ATP were added, and the plate was incubated at room temperature for 30 minutes.
(§12) Then, a dilute solution of EDTA and then a dilute solution of PT66 were added, and the plate was incubated at room temperature for 1 hour.
(§13) The fluorescences were measured with ARVO-HTS, and from the plot of logarithm of a compound concentration and inhibitory activity, the IC50 value was calculated.

For the next test, the target named is JAK1 (Homo sapiens (Human), UniProt P23458). Put plainly: JAK1 enzyme assay. It is filed as biochemical. The settings on record: enzyme 0.5 μg/mL, ATP 70 μM. The method, then:
as §3, §4, §5, §6, §7, §8
JAK1 enzyme assay; the enzyme concentration was 0.5 μg/mL, and the ATP concentration was 70 μM.
as §9, §10, §11, §12, §13

For a further test, the target named is Tyk2 (Homo sapiens (Human), UniProt P29597). Put plainly: Tyk2 enzyme assay. The test is classed as biochemical. The settings on record: enzyme 0.25 μg/mL, ATP 20 μM. The method, then: as §3, §4, §5, §6, §7, §8
Tyk2, sequence (P29597 whole entry): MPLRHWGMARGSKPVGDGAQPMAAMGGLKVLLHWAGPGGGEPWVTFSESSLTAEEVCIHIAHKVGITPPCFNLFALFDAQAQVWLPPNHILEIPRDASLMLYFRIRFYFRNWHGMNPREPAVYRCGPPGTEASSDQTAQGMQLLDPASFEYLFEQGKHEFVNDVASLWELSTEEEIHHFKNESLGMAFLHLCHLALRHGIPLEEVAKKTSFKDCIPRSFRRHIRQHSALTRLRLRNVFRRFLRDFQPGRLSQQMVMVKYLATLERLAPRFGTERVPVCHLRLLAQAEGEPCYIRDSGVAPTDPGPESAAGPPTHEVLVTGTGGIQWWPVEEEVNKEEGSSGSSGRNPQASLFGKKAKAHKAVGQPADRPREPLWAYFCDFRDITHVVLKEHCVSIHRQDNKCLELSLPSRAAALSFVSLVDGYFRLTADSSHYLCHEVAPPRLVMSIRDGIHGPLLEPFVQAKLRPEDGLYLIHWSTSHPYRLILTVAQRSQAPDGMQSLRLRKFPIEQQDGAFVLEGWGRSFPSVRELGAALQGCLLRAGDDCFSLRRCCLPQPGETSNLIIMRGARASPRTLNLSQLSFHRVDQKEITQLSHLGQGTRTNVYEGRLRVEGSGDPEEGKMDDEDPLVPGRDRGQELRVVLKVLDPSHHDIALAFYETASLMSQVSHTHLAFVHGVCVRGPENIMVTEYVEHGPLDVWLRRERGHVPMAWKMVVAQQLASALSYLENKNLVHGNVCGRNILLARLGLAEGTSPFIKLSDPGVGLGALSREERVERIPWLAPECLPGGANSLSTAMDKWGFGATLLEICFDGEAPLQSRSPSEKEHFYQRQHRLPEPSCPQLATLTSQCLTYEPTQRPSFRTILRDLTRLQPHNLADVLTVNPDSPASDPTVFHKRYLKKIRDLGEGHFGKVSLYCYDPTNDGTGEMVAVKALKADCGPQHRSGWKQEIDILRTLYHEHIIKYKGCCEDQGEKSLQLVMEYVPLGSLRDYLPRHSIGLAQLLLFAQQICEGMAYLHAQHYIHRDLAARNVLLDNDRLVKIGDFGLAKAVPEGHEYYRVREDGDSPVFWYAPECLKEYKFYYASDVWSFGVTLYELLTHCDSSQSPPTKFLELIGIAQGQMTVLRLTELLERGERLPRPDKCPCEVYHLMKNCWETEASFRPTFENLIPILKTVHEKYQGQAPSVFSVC
Tyk2 enzyme assay; the enzyme concentration was 0.25 μg/mL and the ATP concentration was 20 μM.
as §9, §10, §11, §12, §13

A further test deals with JAK2 (Homo sapiens (Human), UniProt O60674). Put plainly: JAK2 enzyme assay. The settings on record: enzyme 0.013 μg/mL, ATP 10 μM. It is filed as biochemical. The method, then:
as §3, §4, §5, §6, §7, §8
JAK2 enzyme assay; the enzyme concentration was 0.013 μg/mL, and the ATP concentration was 10 μM.
as §9, §10, §11, §12, §13

JAK2, sequence (O60674 whole entry): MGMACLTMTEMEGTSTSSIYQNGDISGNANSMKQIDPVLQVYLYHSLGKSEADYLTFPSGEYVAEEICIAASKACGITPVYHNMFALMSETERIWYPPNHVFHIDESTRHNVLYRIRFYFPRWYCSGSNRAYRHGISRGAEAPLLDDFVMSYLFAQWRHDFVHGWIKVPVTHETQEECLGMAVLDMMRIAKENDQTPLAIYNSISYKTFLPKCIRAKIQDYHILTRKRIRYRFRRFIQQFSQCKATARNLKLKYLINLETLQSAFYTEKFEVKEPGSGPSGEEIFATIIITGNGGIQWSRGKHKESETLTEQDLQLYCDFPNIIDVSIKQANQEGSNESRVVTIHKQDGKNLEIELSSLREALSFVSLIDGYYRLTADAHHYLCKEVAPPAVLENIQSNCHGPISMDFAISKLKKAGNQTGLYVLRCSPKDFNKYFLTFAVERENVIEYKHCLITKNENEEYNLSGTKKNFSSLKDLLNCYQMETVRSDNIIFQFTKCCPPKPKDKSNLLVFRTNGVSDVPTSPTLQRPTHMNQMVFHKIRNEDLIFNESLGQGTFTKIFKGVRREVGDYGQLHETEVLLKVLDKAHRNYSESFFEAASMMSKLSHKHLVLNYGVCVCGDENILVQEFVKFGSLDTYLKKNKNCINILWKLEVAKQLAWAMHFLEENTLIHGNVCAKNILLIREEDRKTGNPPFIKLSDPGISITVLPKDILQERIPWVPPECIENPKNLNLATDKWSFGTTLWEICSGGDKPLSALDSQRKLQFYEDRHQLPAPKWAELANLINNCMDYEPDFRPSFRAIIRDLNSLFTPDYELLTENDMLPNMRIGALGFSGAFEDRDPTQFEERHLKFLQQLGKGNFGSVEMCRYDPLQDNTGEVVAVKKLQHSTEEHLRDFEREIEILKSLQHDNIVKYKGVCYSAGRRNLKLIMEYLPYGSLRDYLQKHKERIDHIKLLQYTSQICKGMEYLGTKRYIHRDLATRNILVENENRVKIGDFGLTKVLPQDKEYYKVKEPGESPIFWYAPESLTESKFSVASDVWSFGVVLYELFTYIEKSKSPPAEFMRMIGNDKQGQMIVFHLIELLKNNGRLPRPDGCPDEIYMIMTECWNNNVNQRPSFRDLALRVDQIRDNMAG
JAK1, sequence (P23458 whole entry): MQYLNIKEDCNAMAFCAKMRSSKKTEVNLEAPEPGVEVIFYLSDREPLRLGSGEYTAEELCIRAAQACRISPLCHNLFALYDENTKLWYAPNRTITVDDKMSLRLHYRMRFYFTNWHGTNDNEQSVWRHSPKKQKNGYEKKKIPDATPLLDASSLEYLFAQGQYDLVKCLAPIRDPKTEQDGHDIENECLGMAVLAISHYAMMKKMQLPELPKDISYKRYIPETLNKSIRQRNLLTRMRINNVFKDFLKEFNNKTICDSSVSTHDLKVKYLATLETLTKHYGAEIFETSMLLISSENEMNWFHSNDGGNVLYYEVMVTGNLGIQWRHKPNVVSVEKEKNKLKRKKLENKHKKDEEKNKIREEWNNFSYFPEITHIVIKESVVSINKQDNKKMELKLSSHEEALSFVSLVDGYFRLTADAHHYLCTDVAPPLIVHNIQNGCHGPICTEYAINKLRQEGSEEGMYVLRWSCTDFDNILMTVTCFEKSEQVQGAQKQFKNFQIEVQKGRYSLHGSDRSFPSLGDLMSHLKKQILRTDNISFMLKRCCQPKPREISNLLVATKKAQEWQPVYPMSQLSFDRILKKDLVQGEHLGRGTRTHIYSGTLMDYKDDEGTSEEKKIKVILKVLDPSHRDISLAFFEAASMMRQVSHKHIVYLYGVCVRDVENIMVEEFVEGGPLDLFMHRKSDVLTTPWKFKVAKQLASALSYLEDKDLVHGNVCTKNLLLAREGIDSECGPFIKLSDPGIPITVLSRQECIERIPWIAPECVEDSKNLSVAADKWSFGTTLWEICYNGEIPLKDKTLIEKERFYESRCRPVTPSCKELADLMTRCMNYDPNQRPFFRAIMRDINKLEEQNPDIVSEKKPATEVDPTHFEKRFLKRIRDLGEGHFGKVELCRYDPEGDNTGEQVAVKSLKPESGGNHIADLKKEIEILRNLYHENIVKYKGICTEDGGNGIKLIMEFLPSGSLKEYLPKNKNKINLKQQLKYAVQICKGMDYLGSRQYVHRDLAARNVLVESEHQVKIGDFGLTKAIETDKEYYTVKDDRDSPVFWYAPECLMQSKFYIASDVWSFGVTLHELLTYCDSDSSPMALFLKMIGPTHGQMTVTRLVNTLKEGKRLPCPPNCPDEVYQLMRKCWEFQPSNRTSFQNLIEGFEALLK

One may read the IC50 as the point on the concentration scale where inhibition reaches its midpoint. A lower IC50 goes with greater potency in that assay. As for `O=c1[nH]c(=O)n(C2CCC(CNCC(F)(F)F)CC2)c2c1cnc1[nH]ccc12` (stereo not shown) [A], the IC50 in test [1] was determined as 2400 nM.

The compound `N#CCCN(CCC#N)CC1CCC(n2c(=O)[nH]c(=O)c3cnc4[nH]ccc4c32)CC1` (stereo not shown) [Compound B] yielded an IC50 in test [1] of 1300 nM.

Turning to `O=c1ccn(C2CCCCC2)c2c1cnc1[nH]ccc12` [Compound E, reference compound], the IC50 in test [2] is 1300 nM.

The compound `O=C1CCN(C2CCC(CO)CC2)c2c1cnc1[nH]ccc21` (stereo not shown) [Compound F, reference compound] returned a half-inhibitory concentration (IC50) in test [2] of 5900 nM.

`COC1CCC(n2ccc(=O)c3cnc4[nH]ccc4c32)CC1` (stereo not shown) [Compound G, reference compound] gave an IC50 in test [2] of 6500 nM.

In test [2], `Cc1nc(CN2CCC(n3ccc(=O)c4cnc5[nH]ccc5c43)CC2)cs1` [Compound J, reference compound] returned a half-inhibitory concentration (IC50) of 7600 nM.

`N#CC[C@@H](NC[C@H]1CC[C@H](n2c(=O)[nH]c(=O)c3cnc4[nH]ccc4c32)CC1)C(F)(F)F` [Synthetic Example 1, (R)-3-({[trans-4-(2,4-Dioxo-2,3,4,7-tetrahydro-1H-pyrrolo[3′,2′:5,6]pyrido[4,3-d]pyrimidin-1-yl)cyclohexyl]methyl}amino)-4,4,4-trifluorobutanenitrile]: the IC50 at JAK3 was found to be 15 nM; against JAK1 it was 0.99 nM; against Tyk2, 22 nM; on JAK2, 4.6 nM; in test [1] it was 390 nM.

In the case of `O=c1[nH]c(=O)n([C@H]2CC[C@H](COCCC(F)(F)F)CC2)c2c1cnc1[nH]ccc12` [Synthetic Example 2, 1-{trans-4-[(3,3,3-Trifluoropropoxy)methyl]cyclohexyl}-1H-pyrrolo[3′,2′:5,6]pyrido[4,3-d]pyrimidine-2,4(3H,7H)-dione], the IC50 on JAK3 came to 2.9 nM; at JAK1 it was 0.35 nM; against Tyk2, 26 nM; at JAK2, 1.5 nM; in test [1] it was 270 nM.

For the compound `N#CC[C@@H](NC[C@H]1CC[C@H](n2ccc(=O)c3cnc4[nH]ccc4c32)CC1)C(F)(F)F` [Synthetic Example 3, (R)-4,4,4-Trifluoro-3-({[trans-4-(4-oxo-4,7-dihydro-1H-pyrrolo[2,3-h][1,6]naphthyridin-1-yl)cyclohexyl]methyl}amino)butanenitrile], the IC50 against JAK3 was found to be 10 nM; at JAK1 it was 1.7 nM; against Tyk2, 18 nM; against JAK2, 5.1 nM; in test [2], 440 nM.

Consider `Cc1cnn(C[C@H]2CC[C@H](n3ccc(=O)c4cnc5[nH]ccc5c43)CC2)c1` [Synthetic Example 4, 1-{trans-4-[(4-Methyl-1H-pyrazol-1-yl)methyl]cyclohexyl}-1H-pyrrolo[2,3-h][1,6]naphthyridin-4(7H)-one], for which the IC50 against JAK3 amounted to 7.1 nM; against JAK1, 0.41 nM; on Tyk2, 39 nM; on JAK2, 1.9 nM; in test [2], 300 nM.

With `O=c1ccn([C@H]2CC[C@H](COCC(F)(F)F)CC2)c2c1cnc1[nH]ccc12` [Synthetic Example 5, 1-{trans-4-[(2,2,2-Trifluoroethoxy)methyl]cyclohexyl}-1H-pyrrolo[2,3-h][1,6]naphthyridin-4(7H)-one], the IC50 on JAK3 turned out to be 2.7 nM; against JAK1 it was 0.59 nM; on Tyk2 it was 10 nM; in test [2] it was 170 nM.

Regarding `O=c1ccn([C@H]2CC[C@H](COCCC(F)(F)F)CC2)c2c1cnc1[nH]ccc12` [Synthetic Example 6, 1-{trans-4-[(3,3,3-Trifluoropropoxy)methyl]cyclohexyl}-1H-pyrrolo[2,3-h][1,6]naphthyridin-4(7H)-one], the IC50 against JAK3 stood at 2.5 nM; on JAK1 it was 0.68 nM; on Tyk2, 19 nM; against JAK2, 1.6 nM; in test [2], 130 nM.

For `N#CC[C@@H](OC[C@H]1CC[C@H](n2ccc(=O)c3cnc4[nH]ccc4c32)CC1)C(F)(F)F` [Synthetic Example 7, (R)-4,4,4-Trifluoro-3-{[trans-4-(4-oxo-4,7-dihydro-1H-pyrrolo[2,3-h][1,6]naphthyridin-1-yl)cyclohexyl]methoxy}butanenitrile], the IC50 on JAK3 was found to be 5.1 nM; against JAK1, 0.74 nM; on Tyk2, 11 nM; at JAK2, 2 nM; in test [2] it was 150 nM.
